How the values were obtained:
[1] = compound: O=[As]([O-])(O)O.[K+] [potassium arsenate]; test: thermal stability z-score vs DMSO; higher = more thermally stabilized by treatment; settings: HeLa; arsenate concentration 1 mM
Method: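 Cellular thermal proteome profiling in HeLa cells treated with 1 mM arsenate for 1 h (DMSO pretreatment), heated to ten temperatures (37-66.3 °C). Soluble protein was quantified by TMT mass spectrometry relative to DMSO controls; the thermal stability score was transformed to a z-score; mean of n = 3 experiments.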

[2] = compound: NC(=O)CCCCC1CCSS1 [lipoamide]; test: as above; settings: HeLa, lipoamide concentration 100 µM
Method: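 Cellular thermal proteome profiling in HeLa cells. Cells were treated with 100 µM lipoamide for 1 h, with or without 1 mM arsenate for a further 1 h, then heated to ten temperatures (37-66.3 °C), and soluble protein was quantified by TMT mass spectrometry relative to 0.1% DMSO controls. The thermal stability score (sum of log2 fold changes minus the abundance score) was transformed to a z-score; mean of n = 3 experiments.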

[3] = arsenate co-treatment: 1 mM arsenate 1 h
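Note: each temperature applied for 3 min, abundance score taken as mean log2 fold change at the two lowest temperatures, z-score obtained by mean subtraction and division by SD.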

Chain of UniProt Q8IZ52 (Q8IZ52 whole entry): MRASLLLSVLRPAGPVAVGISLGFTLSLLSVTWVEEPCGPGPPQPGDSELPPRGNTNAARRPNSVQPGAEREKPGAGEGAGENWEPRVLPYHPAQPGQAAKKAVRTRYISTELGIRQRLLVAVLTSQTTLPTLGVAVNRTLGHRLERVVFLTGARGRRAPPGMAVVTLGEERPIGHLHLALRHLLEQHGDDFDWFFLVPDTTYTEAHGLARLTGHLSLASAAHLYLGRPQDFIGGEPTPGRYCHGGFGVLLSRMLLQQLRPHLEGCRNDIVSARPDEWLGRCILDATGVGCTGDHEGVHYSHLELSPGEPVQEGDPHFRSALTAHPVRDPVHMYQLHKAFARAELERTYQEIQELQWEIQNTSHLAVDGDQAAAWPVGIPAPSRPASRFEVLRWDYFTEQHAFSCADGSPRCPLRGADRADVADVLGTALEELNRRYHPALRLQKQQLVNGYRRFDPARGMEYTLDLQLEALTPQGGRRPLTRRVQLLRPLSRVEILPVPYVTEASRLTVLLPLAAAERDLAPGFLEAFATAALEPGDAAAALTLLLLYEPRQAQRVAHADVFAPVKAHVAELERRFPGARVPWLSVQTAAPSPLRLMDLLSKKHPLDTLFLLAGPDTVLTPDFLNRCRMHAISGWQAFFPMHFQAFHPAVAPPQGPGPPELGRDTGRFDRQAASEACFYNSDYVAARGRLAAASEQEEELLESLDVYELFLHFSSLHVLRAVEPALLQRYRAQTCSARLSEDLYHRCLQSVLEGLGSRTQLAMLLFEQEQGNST
Chain of UniProt O00443 (O00443 whole entry): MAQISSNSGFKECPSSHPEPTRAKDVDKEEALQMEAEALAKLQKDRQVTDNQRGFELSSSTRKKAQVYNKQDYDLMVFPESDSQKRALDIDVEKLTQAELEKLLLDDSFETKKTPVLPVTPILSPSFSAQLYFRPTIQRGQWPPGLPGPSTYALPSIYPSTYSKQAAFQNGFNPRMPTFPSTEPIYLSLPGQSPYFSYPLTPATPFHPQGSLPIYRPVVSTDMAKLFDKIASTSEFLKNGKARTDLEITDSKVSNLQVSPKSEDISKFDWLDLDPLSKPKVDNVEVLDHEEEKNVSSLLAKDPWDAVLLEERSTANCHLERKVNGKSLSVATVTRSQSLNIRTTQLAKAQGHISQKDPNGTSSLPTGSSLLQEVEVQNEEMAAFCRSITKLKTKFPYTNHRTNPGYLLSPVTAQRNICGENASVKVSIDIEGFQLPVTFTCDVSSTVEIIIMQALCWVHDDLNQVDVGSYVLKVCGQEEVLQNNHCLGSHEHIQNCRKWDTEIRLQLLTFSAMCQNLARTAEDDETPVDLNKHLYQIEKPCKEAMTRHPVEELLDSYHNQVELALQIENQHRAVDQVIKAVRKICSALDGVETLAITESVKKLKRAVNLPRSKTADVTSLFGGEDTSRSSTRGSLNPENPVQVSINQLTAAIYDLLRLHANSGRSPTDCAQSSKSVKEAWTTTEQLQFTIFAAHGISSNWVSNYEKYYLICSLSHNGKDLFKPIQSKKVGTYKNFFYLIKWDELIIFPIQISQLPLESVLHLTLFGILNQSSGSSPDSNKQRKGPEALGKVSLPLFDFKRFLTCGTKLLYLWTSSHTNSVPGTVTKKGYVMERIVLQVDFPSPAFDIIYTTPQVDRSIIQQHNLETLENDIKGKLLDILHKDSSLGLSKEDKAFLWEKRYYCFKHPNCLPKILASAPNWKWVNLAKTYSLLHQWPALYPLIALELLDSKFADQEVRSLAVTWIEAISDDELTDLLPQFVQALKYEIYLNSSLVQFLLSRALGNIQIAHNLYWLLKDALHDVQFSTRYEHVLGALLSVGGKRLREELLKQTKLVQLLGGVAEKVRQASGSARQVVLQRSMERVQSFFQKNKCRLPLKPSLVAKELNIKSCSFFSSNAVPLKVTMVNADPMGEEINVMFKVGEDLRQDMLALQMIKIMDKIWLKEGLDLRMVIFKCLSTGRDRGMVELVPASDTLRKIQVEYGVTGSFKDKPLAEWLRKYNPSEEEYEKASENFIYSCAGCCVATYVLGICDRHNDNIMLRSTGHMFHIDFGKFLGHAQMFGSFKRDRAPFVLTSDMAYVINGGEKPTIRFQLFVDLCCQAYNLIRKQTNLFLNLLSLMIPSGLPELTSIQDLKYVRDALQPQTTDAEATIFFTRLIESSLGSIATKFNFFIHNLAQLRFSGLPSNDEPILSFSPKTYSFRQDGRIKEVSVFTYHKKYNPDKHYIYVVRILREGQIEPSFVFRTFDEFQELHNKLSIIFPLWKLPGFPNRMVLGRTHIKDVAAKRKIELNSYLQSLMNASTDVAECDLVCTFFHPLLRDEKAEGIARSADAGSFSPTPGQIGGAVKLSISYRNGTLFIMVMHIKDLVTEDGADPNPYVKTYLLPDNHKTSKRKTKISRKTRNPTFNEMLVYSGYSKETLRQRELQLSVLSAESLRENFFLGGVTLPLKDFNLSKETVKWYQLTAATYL
Chain of UniProt P15735 (P15735 whole entry): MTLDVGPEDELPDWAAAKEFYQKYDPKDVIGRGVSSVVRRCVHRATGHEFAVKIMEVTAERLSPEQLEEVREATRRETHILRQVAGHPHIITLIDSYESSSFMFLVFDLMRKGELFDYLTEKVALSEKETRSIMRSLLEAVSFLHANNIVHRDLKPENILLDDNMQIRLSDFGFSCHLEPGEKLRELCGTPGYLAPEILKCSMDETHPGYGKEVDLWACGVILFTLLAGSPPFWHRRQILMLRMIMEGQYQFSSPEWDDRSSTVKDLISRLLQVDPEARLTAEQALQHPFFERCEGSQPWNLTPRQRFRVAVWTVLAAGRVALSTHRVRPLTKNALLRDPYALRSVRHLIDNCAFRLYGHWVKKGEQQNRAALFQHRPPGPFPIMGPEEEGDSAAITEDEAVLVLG
Chain of UniProt Q15022 (Q15022 whole entry): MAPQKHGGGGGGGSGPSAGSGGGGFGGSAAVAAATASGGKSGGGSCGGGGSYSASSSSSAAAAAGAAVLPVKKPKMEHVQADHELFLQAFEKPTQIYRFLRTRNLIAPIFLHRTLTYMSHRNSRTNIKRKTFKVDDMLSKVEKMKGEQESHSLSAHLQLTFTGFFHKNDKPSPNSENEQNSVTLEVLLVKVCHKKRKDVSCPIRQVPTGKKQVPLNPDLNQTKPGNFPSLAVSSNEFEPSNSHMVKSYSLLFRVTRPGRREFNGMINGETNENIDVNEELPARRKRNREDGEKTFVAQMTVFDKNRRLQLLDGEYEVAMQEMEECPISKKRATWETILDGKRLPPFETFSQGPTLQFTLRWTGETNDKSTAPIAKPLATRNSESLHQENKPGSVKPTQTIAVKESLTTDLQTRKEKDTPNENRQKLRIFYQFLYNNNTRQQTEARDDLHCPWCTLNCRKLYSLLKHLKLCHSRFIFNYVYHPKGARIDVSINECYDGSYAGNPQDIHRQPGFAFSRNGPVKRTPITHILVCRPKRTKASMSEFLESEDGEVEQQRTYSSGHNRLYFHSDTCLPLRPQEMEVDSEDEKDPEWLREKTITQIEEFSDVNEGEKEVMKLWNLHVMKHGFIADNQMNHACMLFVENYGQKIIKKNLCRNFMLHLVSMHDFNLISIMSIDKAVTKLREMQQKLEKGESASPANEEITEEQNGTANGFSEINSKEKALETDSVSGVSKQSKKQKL
Chain of UniProt Q9HC35 (Q9HC35 whole entry): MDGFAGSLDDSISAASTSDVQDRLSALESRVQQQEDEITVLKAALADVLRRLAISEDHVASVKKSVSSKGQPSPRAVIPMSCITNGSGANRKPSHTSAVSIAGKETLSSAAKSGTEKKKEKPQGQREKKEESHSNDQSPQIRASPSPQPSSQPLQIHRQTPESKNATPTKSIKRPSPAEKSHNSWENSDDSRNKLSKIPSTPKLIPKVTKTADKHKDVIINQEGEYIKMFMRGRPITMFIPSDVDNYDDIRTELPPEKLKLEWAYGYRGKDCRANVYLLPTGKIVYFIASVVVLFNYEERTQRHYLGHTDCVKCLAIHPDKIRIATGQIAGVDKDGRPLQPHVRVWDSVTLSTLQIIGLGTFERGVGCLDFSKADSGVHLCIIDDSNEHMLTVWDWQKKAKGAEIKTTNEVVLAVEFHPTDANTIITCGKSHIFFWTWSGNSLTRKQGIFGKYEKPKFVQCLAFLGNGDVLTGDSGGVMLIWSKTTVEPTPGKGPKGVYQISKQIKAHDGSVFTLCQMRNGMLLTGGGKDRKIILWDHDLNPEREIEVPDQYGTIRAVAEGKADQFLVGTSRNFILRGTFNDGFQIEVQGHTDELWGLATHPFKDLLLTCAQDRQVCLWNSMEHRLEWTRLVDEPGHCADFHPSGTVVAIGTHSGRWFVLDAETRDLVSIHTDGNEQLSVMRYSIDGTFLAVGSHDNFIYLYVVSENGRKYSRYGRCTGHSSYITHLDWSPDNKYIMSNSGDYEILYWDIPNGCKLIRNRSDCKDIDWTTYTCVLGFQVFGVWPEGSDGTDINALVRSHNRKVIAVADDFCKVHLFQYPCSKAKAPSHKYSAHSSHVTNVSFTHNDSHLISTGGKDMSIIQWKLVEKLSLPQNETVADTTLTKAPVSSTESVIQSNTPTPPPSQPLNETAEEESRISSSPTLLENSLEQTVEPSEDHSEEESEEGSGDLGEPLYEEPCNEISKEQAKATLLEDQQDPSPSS
Chain of UniProt Q96HP4 (Q96HP4 whole entry): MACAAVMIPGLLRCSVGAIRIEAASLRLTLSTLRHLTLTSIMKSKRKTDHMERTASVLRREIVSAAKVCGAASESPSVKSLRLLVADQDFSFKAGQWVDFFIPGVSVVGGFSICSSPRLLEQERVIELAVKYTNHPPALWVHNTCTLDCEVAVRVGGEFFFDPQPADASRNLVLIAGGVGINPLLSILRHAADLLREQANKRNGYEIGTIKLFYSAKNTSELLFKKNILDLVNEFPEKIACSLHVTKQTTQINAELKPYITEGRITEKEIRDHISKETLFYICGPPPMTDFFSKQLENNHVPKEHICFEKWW
Chain of UniProt P30049 (P30049 whole entry): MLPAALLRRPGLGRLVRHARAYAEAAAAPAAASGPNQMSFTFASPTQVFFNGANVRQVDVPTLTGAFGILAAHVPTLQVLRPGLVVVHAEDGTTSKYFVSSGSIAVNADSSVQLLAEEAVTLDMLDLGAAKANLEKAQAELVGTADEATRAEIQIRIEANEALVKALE

Row | Target | thermal stability z-score [1] | thermal stability z-score [2, 3] | thermal stability z-score ([2]; arsenate co-treatment: none)
1 | HMG20A (UniProt Q9NP66) | 0.344 | 0.359 | -0.371
2 | YTHDF2 (UniProt Q9Y5A9) | 0.0979 | -0.0393 | -0.108
3 | PUM1 (UniProt Q14671) | -0.174 | -0.249 | -0.0302
4 | ERAP1 (UniProt Q9NZ08) | 0.97 | -2.65 | -2.68
5 | TEX264 (UniProt Q9Y6I9) | -0.568 | -0.151 | -0.929
6 | KANK2 (UniProt Q63ZY3) | -0.109 | -0.0369 | 0.0732
7 | PDHB (UniProt P11177) | -2.38 | 0.134 | 0.282
8 | CHPF (UniProt Q8IZ52) | -0.257 | -1.5 | -0.387
9 | CBX4 (UniProt O00257) | 0.529 | -0.406 | 0.212
10 | ATP5D (UniProt P30049) | 0.463 | 1.09 | 0.762
11 | SMARCAD1 (UniProt Q9H4L7) | -0.159 | -1.27 | -0.234
12 | PIK3C2A (UniProt O00443) | 0.167 | -0.267 | 0.213
13 | SEPHS1 (UniProt P49903) | 0.00514 | 0.189 | 0.065
14 | C18ORF8 (UniProt Q96DM3) | -0.638 | 0.827 | 0.41
15 | NTMT1 (UniProt Q9BV86) | -0.137 | -0.319 | -0.204
16 | NELFB (UniProt Q8WX92) | -0.0666 | -0.286 | 0.576
17 | GSTT1 (UniProt P30711) | -0.279 | 1.07 | 0.0783
18 | ARAF (UniProt P10398) | -0.275 | -0.299 | -0.252
19 | PPP4R3B (UniProt Q5MIZ7) | -0.227 | -0.195 | -0.1
20 | EIF4E2 (UniProt O60573) | -1.43 | -0.568 | -0.113
21 | OXNAD1 (UniProt Q96HP4) | -0.691 | 0.221 | 0.451
22 | UBE2S (UniProt Q16763) | 0.161 | 0.862 | 0.191
23 | METTL21A (UniProt Q8WXB1) | 0.26 | 0.425 | -0.307
24 | DPH1 (UniProt Q9BZG8) | -1.29 | -0.233 | -0.119
25 | UTP18 (UniProt Q9Y5J1) | 0.516 | 0.058 | -0.244
26 | PHKG2 (UniProt P15735) | 0.714 | 0.926 | 1.04
27 | WDR70 (UniProt Q9NW82) | -0.891 | 0.397 | 0.0128
28 | ZDHHC13 (UniProt Q8IUH4) | 0.144 | 0.0485 | -0.0918

Row | Target | thermal stability z-score [1] | thermal stability z-score [2, 3] | thermal stability z-score ([2]; arsenate co-treatment: none)
29 | CAND1 (UniProt Q86VP6) | -0.122 | 0.463 | 0.225
30 | COG6 (UniProt Q9Y2V7) | -0.012 | -0.00556 | -0.0575
31 | UCHL3 (UniProt P15374) | -0.0572 | 0.844 | 0.126
32 | PDS5A (UniProt Q29RF7) | -0.428 | 0.543 | 0.408
33 | IMPDH1 (UniProt P20839) | 1.28 | -0.546 | -0.319
34 | PPIE (UniProt Q9UNP9) | 0.128 | 0.246 | 0.0366
35 | TRMT11 (UniProt Q7Z4G4) | -0.518 | 0.259 | -0.151
36 | SUZ12 (UniProt Q15022) | -0.186 | -0.0278 | -0.101
37 | POLR1E (UniProt Q9GZS1) | -0.0491 | 0.144 | 0.0221
38 | RHOB (UniProt P62745) | -0.245 | 0.0865 | 0.065
39 | CRKL (UniProt P46109) | 0.656 | 0.0621 | 0.384
40 | RNH1 (UniProt P13489) | -4.26 | 0.376 | 0.478
41 | OXR1 (UniProt Q8N573) | 0.101 | 0.209 | 0.17
42 | MOSPD2 (UniProt Q8NHP6) | -0.254 | -0.58 | -0.383
43 | GMPR2 (UniProt Q9P2T1) | 0.121 | 0.37 | 0.368
44 | ATRAID (UniProt Q6UW56) | 0.451 | -2.95 | -2.55
45 | AGR2 (UniProt O95994) | -0.355 | -2.84 | -2.57
46 | RALGPS2 (UniProt Q86X27) | -0.177 | -0.0453 | 0.191
47 | TBC1D10B (UniProt Q4KMP7) | -0.503 | -0.825 | -0.121
48 | EML4 (UniProt Q9HC35) | 1.33 | -0.51 | -0.693
49 | KTI12 (UniProt Q96EK9) | -0.224 | 0.014 | -0.222
50 | TSFM (UniProt P43897) | -0.0696 | -0.91 | -0.179
51 | RFC3 (UniProt P40938) | -0.0936 | -0.548 | -0.365
52 | GPX4 (UniProt P36969) | 0.286 | -0.524 | -0.696
53 | IFI35 (UniProt P80217) | 2.08 | 1.36 | 0.774
54 | P4HA1 (UniProt P13674) | 1.27 | -4.31 | -3.57
55 | RABGGTB (UniProt P53611) | 1.46 | 0.508 | -0.0991
